{"source": "paper PMC10600247", "about": "“Impact of C- and N-terminal protection on the stability, metal chelation and antimicrobial properties of calcitermin” (Scientific Reports, 2023)", "key": {"S. aureus (ATCC 25293)": {"tested_on": "S. aureus (ATCC 25293)", "assay": "In vitro anti-S. aureus CFU assay", "type": "cell-based, Staphylococcus aureus", "conditions": "3 h, pH 5.4; for mean CFU number ± S.D.: per 0.1 mL", "protocol": "All microbes were grown at 37 °C in Tryptic Soy Broth (TSB; Biolife, Milan, Italy) or Tryptic Soy Agar plates (TSA, Biolife, Milan, Italy). Peptides were tested at a final concentration C = 0.128, 0.064, 0.032 mg/mL, in the presence or absence of ZnCl2 or CuCl2, at a M:L molar ratio 0.9:1. Briefly, all the microbes were expanded in TSB at 37 °C under agitation for 12 h and then sub-cultured by 1:10 dilution in TSB under the same conditions until reaching OD600nm = 0.3–0.4, as measured by spectrophotometric reading using a GENESYS 10S UV–Vis spectrophotometer (Thermo Scientific, Milan, Italy), corresponding to 0.9–1.2 × 10^7 colony forming units (CFU) per mL, 1.5–2 × 10^8 CFU/mL and 2.4–3.2 × 10^8 CFU/mL, for C. albicans, S. aureus and E. coli respectively. The cultures were then centrifuged at 4500 rpm for 10 min in a SL 8 centrifuge (TX-150 Rotor) (Thermo Scientific, Milan, Italy), and the cellular pellets were washed with PBS pH 5.4. Pelletized cultures were then suspended in 10 mL of PBS pH 5.4, then the suspensions were diluted to a final concentration of 10^4 CFU/mL. Aliquots of 100 µl (corresponding to 10^3 CFU) were seeded in each well of a 96-wells plate. 3 µl of TSB at pH 5.4 were added to each well to obtain a final 1.5% TSB concentration in the culture medium. Peptides were serially diluted in PBS pH 5.4 to C = 0.257, 0.128, and 0.064 mg/mL. ZnCl2 and CuCl2 solutions were added where requested to obtain a M:L ratio 0.9:1. 100 µl of the prepared peptides ± ZnCl2/CuCl2 solutions were then added to each well, obtaining the final 0.128, 0.064 and 0.032 mg/mL peptide concentrations in a total 0.2 mL volume. PBS alone and PBS + ZnCl2/CuCl2 solutions were included as controls. The plates were incubated at 37 °C on a platform rocker with slow stirring for 3 and 24 h. At the end of the incubation times, 100 µl aliquots were taken from each sample and diluted in PBS pH 5.4 to be seeded on TSA plates. Specifically, aliquots were diluted 1:10 at 3 h, and 1:200, 1:100,000 and 1:10 at 24 h, for C. albicans, E. coli, and S. aureus respectively. After incubation for 24 h at 37 °C, grown CFUs were enumerated. Samples were assayed in triplicate in two independent experiments. Student’s t-test was used for the evaluation of significance in biological tests; a p value ≤ 0.05 was considered significant."}, "[1]": {"assay": "Potentiometry: protonation of the ligand", "type": "physicochemical", "conditions": "T = 298 K, I = 0.1 M (KCl)", "source_text": "Stability constants for proton and metal complexes were obtained from pH-metric titration curves registered at T = 298 K and ionic strength 0.1 M (KCl). The potentiometric apparatus was previously described. Solutions were titrated with 0.1 M carbonate-free KOH. The electrode was daily calibrated for hydrogen ion concentration by titrating HNO3 with the standard base solution, under the same experimental conditions as above. The asymmetry potential and the slope of the electrode couple were computed by means of […][41] and Glee[42] programs. The purities and exact concentrations of the ligand solutions were determined by the Gran method. The […][44] program was employed for the overall formation constant (β) calculations, referred to the following equilibrium equation: pM + qL + rH ⇆ MpLqHr (charges omitted; p is 0 in the case of ligand protonation; r can be negative). The computed standard deviations (referring to random errors only) were given by the program itself and are shown in parentheses as uncertainties on the last significant figure. Hydrolysis constants for metal ions were taken from the literature[45],[46]. The distribution and competition diagrams were computed using the HYSS program.\n1. Wild-type calcitermin: thermodynamic data\nWild-type calcitermin (WT) has been previously investigated by our research group in aqueous solutions and ionic medium NaClO4.1 For the sake of comparison, potentiometric studies of WT and its copper and zinc complexes have been performed in a different ionic medium (KCl 0.1 M). The study of the speciation under different experimental conditions, changing ionic medium and metal-ligand ratio, is essential to comprehensively describe the thermodynamics of calcitermin, which is usually found in multicomponent media like biological fluids.\nTable S1. Equilibrium constants for protonation of WT and its Cu2+ and Zn2+ complex formation at T = 298 K and I = 0.1 M (KCl). Values in parentheses are standard deviations on the last significant figure."}, "[2]": {"conditions": "peptide 0.032 mg/mL + CuCl2 (0.9:1)"}, "[3]": {"conditions": "peptide 0.032 mg/mL + ZnCl2 (0.9:1)"}, "[4]": {"conditions": "peptide 0.064 mg/mL + CuCl2 (0.9:1)"}, "[5]": {"conditions": "peptide 0.064 mg/mL + ZnCl2 (0.9:1)"}, "[6]": {"conditions": "peptide 0.128 mg/mL + CuCl2 (0.9:1)"}, "[7]": {"conditions": "peptide 0.128 mg/mL + ZnCl2 (0.9:1)"}}, "note": "Residues, ends and D or L forms follow the SMILES beside them.", "data": [{"smiles": "CC[C@H](C)[C@H](NC(=O)[C@H](C)NC(=O)[C@@H](N)C(C)C)C(=O)N[C@@H](C)C(=O)N[C@@H](CC(C)C)C(=O)N[C@@H](CCCCN)C(=O)N[C@@H](C)C(=O)N[C@@H](C)C(=O)N[C@@H](Cc1c[nH]cn1)C(=O)N[C@@H](Cc1ccc(O)cc1)C(=O)N[C@@H](Cc1c[nH]cn1)C(=O)N[C@H](C(=O)N[C@@H](Cc1c[nH]cn1)C(=O)N[C@@H](CCCCN)C(=O)N[C@@H](CCC(=O)O)C(N)=O)[C@@H](C)O", "note": "[L3, VAIALKAAHYHTHKE-NH2] (H-VAIALKAAHYHTHKE-NH2)", "values": [{"measurement": "CFU decrease/increase with respect to untreated controls", "setting": "S. aureus (ATCC 25293); [2]", "result": "+6%"}, {"measurement": "mean CFU number ± S.D.", "setting": "S. aureus (ATCC 25293); [2]", "result": "187 ± 13", "unit": "CFU"}, {"measurement": "CFU decrease/increase with respect to untreated controls", "setting": "S. aureus (ATCC 25293); [3]", "result": -6, "unit": "%"}, {"measurement": "mean CFU number ± S.D.", "setting": "S. aureus (ATCC 25293); [3]", "result": "167 ± 22", "unit": "CFU"}, {"measurement": "CFU decrease/increase with respect to untreated controls", "setting": "S. aureus (ATCC 25293); [4]", "result": -2, "unit": "%"}, {"measurement": "mean CFU number ± S.D.", "setting": "S. aureus (ATCC 25293); [4]", "result": "173 ± 69", "unit": "CFU"}, {"measurement": "CFU decrease/increase with respect to untreated controls", "setting": "S. aureus (ATCC 25293); [5]", "result": -50, "unit": "%"}, {"measurement": "mean CFU number ± S.D.", "setting": "S. aureus (ATCC 25293); [5]", "result": "88 ± 18", "unit": "CFU"}, {"measurement": "mean CFU number ± S.D.", "setting": "S. aureus (ATCC 25293); [6]", "result": "94 ± 2", "unit": "CFU"}, {"measurement": "mean CFU number ± S.D.", "setting": "S. aureus (ATCC 25293); [7]", "result": "48 ± 8", "unit": "CFU"}, {"measurement": "CFU decrease/increase with respect to untreated controls", "setting": "S. aureus (ATCC 25293); peptide alone 0.032 mg/mL", "result": -28, "unit": "%"}, {"measurement": "mean CFU number ± S.D.", "setting": "S. aureus (ATCC 25293); peptide alone 0.032 mg/mL", "result": "127 ± 64", "unit": "CFU"}, {"measurement": "mean CFU number ± S.D.", "setting": "S. aureus (ATCC 25293); peptide alone 0.064 mg/mL", "result": "101 ± 30", "unit": "CFU"}, {"measurement": "mean CFU number ± S.D.", "setting": "S. aureus (ATCC 25293); peptide alone 0.128 mg/mL", "result": "91 ± 12", "unit": "CFU"}]}, {"smiles": "CC[C@H](C)[C@H](NC(=O)[C@H](C)NC(=O)[C@@H](N)C(C)C)C(=O)N[C@@H](C)C(=O)N[C@@H](CC(C)C)C(=O)N[C@@H](CCCCN)C(=O)N[C@@H](C)C(=O)N[C@@H](C)C(=O)N[C@@H](Cc1c[nH]cn1)C(=O)N[C@@H](Cc1ccc(O)cc1)C(=O)N[C@@H](Cc1c[nH]cn1)C(=O)N[C@H](C(=O)N[C@@H](Cc1c[nH]cn1)C(=O)N[C@@H](CCCCN)C(=O)N[C@@H](CCC(=O)O)C(=O)O)[C@@H](C)O", "note": "[WT, VAIALKAAHYHTHKE, reference compound] (H-VAIALKAAHYHTHKE-OH)", "values": [{"measurement": "protonation logK H2L", "setting": "[1]", "result": 10.53}, {"measurement": "protonation logK H3L", "setting": "[1]", "result": 9.50}, {"measurement": "protonation logK H4L", "setting": "[1]", "result": 7.73}, {"measurement": "protonation logK H5L", "setting": "[1]", "result": 6.93}, {"measurement": "protonation logK H6L", "setting": "[1]", "result": 6.33}, {"measurement": "protonation logK H7L", "setting": "[1]", "result": 5.65}, {"measurement": "protonation logK H8L", "setting": "[1]", "result": 4.22}, {"measurement": "protonation logK H9L", "setting": "[1]", "result": 2.93}, {"measurement": "protonation logK HL", "setting": "[1]", "result": 10.61}, {"measurement": "protonation logβ H2L", "setting": "[1]", "result": "21.14(2)"}, {"measurement": "protonation logβ H3L", "setting": "[1]", "result": "30.64(4)"}, {"measurement": "protonation logβ H4L", "setting": "[1]", "result": "38.38(4)"}, {"measurement": "protonation logβ H5L", "setting": "[1]", "result": "45.31(4)"}, {"measurement": "protonation logβ H6L", "setting": "[1]", "result": "51.64(4)"}, {"measurement": "protonation logβ H7L", "setting": "[1]", "result": "57.29(4)"}, {"measurement": "protonation logβ H8L", "setting": "[1]", "result": "61.51(4)"}, {"measurement": "protonation logβ H9L", "setting": "[1]", "result": "64.44(5)"}, {"measurement": "protonation logβ HL", "setting": "[1]", "result": "10.61(6)"}, {"measurement": "CFU decrease/increase with respect to untreated controls", "setting": "S. aureus (ATCC 25293); [2]", "result": "+30%"}, {"measurement": "mean CFU number ± S.D.", "setting": "S. aureus (ATCC 25293); [2]", "result": "209 ± 44", "unit": "CFU"}, {"measurement": "CFU decrease/increase with respect to untreated controls", "setting": "S. aureus (ATCC 25293); [3]", "result": "+5%"}, {"measurement": "mean CFU number ± S.D.", "setting": "S. aureus (ATCC 25293); [3]", "result": "169 ± 40", "unit": "CFU"}, {"measurement": "CFU decrease/increase with respect to untreated controls", "setting": "S. aureus (ATCC 25293); [4]", "result": "+9%"}, {"measurement": "mean CFU number ± S.D.", "setting": "S. aureus (ATCC 25293); [4]", "result": "175 ± 30", "unit": "CFU"}, {"measurement": "CFU decrease/increase with respect to untreated controls", "setting": "S. aureus (ATCC 25293); [5]", "result": -14, "unit": "%"}, {"measurement": "mean CFU number ± S.D.", "setting": "S. aureus (ATCC 25293); [5]", "result": "139 ± 20", "unit": "CFU"}, {"measurement": "CFU decrease/increase with respect to untreated controls", "setting": "S. aureus (ATCC 25293); [6]", "result": "+42%"}, {"measurement": "mean CFU number ± S.D.", "setting": "S. aureus (ATCC 25293); [6]", "result": "229 ± 55", "unit": "CFU"}, {"measurement": "CFU decrease/increase with respect to untreated controls", "setting": "S. aureus (ATCC 25293); peptide 0.128 mg/mL + ZnCl2 (0.9:1), listed as WT calcitermin", "result": -41, "unit": "%"}, {"measurement": "mean CFU number ± S.D.", "setting": "S. aureus (ATCC 25293); [7]", "result": "96 ± 21", "unit": "CFU"}, {"measurement": "CFU decrease/increase with respect to untreated controls", "setting": "S. aureus (ATCC 25293); peptide alone 0.032 mg/mL", "result": -9.3, "unit": "%"}, {"measurement": "mean CFU number ± S.D.", "setting": "S. aureus (ATCC 25293); peptide alone 0.032 mg/mL", "result": "146 ± 7", "unit": "CFU"}, {"measurement": "CFU decrease/increase with respect to untreated controls", "setting": "S. aureus (ATCC 25293); peptide alone 0.064 mg/mL", "result": -1.2, "unit": "%"}, {"measurement": "mean CFU number ± S.D.", "setting": "S. aureus (ATCC 25293); peptide alone 0.064 mg/mL", "result": "159 ± 45", "unit": "CFU"}, {"measurement": "CFU decrease/increase with respect to untreated controls", "setting": "S. aureus (ATCC 25293); peptide alone 0.128 mg/mL", "result": -1.8, "unit": "%"}, {"measurement": "mean CFU number ± S.D.", "setting": "S. aureus (ATCC 25293); peptide alone 0.128 mg/mL", "result": "158 ± 59", "unit": "CFU"}]}]}
